Experiment [1] concerns TRPC3, TRPC4, TRPC5, TRPC6, TRPC4–C1, TRPC5–C1, endogenous TRPC1:C4 channels. Nature of the experiment: Summary of TRPC channel inhibition by AC1903. The format is cell-based. Conditions: TRPC3, TRPC4, TRPC5, TRPC6, TRPC4–C1, TRPC5–C1, endogenous TRPC1:C4 in A498; read-out: IC50 values over multiple TRPC channels. From the text: Nonsense mutations, which occur in ∼11% of patients with genetic disorders, introduce premature termination codons (PTCs) that lead to truncated proteins and promote nonsense-mediated mRNA decay. Aminoglycosides such as G418 permit PTC readthrough and so may be used to address this problem. However, their effects are variable between patients, making clinical use of aminoglycosides challenging. In this study, we tested whether TRPC nonselective cation channels contribute to the variable PTC readthrough effect of aminoglycosides by controlling their cellular uptake. […] In addition, our data strengthen the hypothesis that nonselective calcium channels are involved in aminoglycoside uptake.
[Ca^2+]i recordings were carried out using the ratiometric Ca^2+ dye Fura-2. 24 h prior to experiments, cells were plated either onto black, clear bottom poly-D-lysine-coated 96-well plates (HEK cells) or clear 96-well plates (A498 cells, CHO cells) at 50,000 cells per well (HEK cells) or 20,000 cells per well (A498 cells, CHO cells). For tetracycline-inducible HEK T-REx cells, protein expression was induced with tetracycline (TRPC channels: 1 μg ml^−1; hPiezo1: 100 ng ml^−1) at this point. […]

Experiment [2] concerns JEB01 keratinocytes (COL17A1 R688X). Nature of the experiment: G418-induced PTC readthrough (Collagen XVII, Western blot) in JEB01 keratinocytes. The note with it: pretreatment 150 μM AC1903, increasing concentrations of G418 (Fig. 2E). The format is cell-based, human. The protocol: Figure 2 Effect of AC1903 on PTC readthrough and G418 trafficking.A and B, DMS-114 (A) or TC-71 (B) cells were pretreated with indicated concentrations of AC1903 for 3 h followed by exposure to 400 μg/ml G418. After 3 h medium was replenished and at 24 h cell lysates were prepared and p53 levels were measured. C and E, DMS-114 (C) or JEB01 (E) cells were either left untreated or pretreated with 150 μM AC1903 for 3 h followed by exposure to indicated concentrations of G418 for another 3 h. At 24 h cell lysates were prepared and p53 (C) or Collagen XVII (E) levels were measured. In panels A–C, protein levels were measured by automated capillary electrophoresis Western analysis (using vinculin as loading control). In panel E, protein levels were measured by Western blot (using beta-actin as loading control). […] D, total intracellular levels of G418 were measured in the same lysates as in (C) (n = 5; data normalized to the highest response in each experiment; bars represent mean ± SD). F, total intracellular levels of G418 were measured in the same lysates as in (E) (n = 2; data normalized to the highest response in each experiment; bars represent mean ± SD). ∗ indicates statistically significant difference between samples according to one-way ANOVA (p < 0.05). […]
Background: A western blot detects proteins with antibodies after separation by electrophoresis.

`c1ccc(Cn2c(NCc3ccco3)nc3ccccc32)cc1` [AC1903]: in experiment [1], the 50% inhibitory concentration (IC50) (usually the concentration that gives 50% inhibition) is 1.8 to 18 µM. The “decline of full-length Collagen XVII” value in experiment [2] is listed as 45–80%.

The record behind these values is article PMC8808171, “Nonselective TRPC channel inhibition and suppression of aminoglycoside-induced premature termination codon readthrough by the small molecule AC1903” (The Journal of Biological Chemistry, 2022).
